Results as given in US20100184815A1 (priority 2008, published 2010).
Where two headings read alike, the source gives them in different places.

How the values were obtained:
Gal-4 hPPARα = biological target: T1, Gal-4 hPPARα (Homo sapiens, UniProt Q07869); test: Gal4-hPPARα transient transfection reporter assay in Cos cells; type: cell-based; settings: luciferase reporter, 24 hours with compound, scale 1-5, read-out: Gal-4 hPPAR α EC50 (scaled number)
T1 construct: Plasmids pGal4-hPPARα, pGal4-hPPARγ, pGal4-hPPARδ and pG5-TK-pGL3 were constructed as previously described by Staels, Bart, et al., Nature 1998 Jun; 25
T1 sequence (Q07869 200-468 limits assumed): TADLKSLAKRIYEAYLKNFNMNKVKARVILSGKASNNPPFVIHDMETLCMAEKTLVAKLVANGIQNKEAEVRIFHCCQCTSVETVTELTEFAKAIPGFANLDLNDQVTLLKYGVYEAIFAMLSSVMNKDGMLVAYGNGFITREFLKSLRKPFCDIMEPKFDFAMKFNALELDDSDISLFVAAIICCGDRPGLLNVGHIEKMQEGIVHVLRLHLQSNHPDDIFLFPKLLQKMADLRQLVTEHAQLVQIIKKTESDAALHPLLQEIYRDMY
Outline: (§1)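 Cos cells transiently co-transfected with Gal4-hPPAR expression plasmid, pG5-TK-pGL3 luciferase reporter and β-galactosidase control, then treated 24 h with increasing compound concentrations in DMEM containing 0.2% FCS. Luciferase normalised to β-galactosidase; EC50 from curve fit, at least three experiments.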

Gal-4 hPPARγ = biological target: T2, Gal-4 hPPARγ (Homo sapiens, UniProt P37231); test: Gal4-hPPARγ transient transfection reporter assay in Cos cells; type: cell-based; settings: luciferase reporter, 24 hours with compound, scale 1-5, read-out: Gal-4 hPPAR γ EC50 (scaled number)
T2 construct: Plasmids pGal4-hPPARα, pGal4-hPPARγ, pGal4-hPPARδ and pG5-TK-pGL3 were constructed as previously described by Staels, Bart, et al., Nature 1998 Jun; 25
T2 sequence (P37231 238-505 limits assumed): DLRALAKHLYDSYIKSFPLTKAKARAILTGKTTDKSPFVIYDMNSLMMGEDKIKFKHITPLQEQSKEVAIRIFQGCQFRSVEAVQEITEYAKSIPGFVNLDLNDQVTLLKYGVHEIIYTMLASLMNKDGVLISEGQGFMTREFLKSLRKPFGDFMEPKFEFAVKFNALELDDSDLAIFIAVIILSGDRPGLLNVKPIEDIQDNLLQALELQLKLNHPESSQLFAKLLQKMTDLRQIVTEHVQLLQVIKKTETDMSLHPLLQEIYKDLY
Outline: as §1

Gal-4 hPPARβ/δ = biological target: T3, Gal-4 hPPARβ/δ (Homo sapiens, UniProt Q03181); test: Gal4-hPPARδ transient transfection reporter assay in Cos cells; type: cell-based; settings: luciferase reporter, 24 hours with compound, scale 1-5, read-out: Gal-4 hPPAR β/δ EC50 (scaled number)
T3 construct: Plasmids pGal4-hPPARα, pGal4-hPPARγ, pGal4-hPPARδ and pG5-TK-pGL3 were constructed as previously described by Staels, Bart, et al., Nature 1998 Jun; 25
T3 sequence (Q03181 171-441 limits assumed): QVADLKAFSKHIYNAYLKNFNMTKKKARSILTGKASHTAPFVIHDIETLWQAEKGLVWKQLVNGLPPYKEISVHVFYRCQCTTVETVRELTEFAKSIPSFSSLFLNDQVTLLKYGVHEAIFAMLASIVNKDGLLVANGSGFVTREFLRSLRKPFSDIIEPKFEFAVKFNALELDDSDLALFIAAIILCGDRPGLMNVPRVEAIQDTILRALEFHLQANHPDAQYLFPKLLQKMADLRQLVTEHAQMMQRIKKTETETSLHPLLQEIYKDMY
Outline: as §1

[1] = Metabolism studies using human liver microsomal preparations; type: in vitro ADME; settings: for HLMs t1/2 (min) / half-life: pooled human liver microsomes, with NADPH (CYP system active), 37° C.; for HLMs Predominant Enzyme: comparison of half life with and without NADPH: Esterase, CYP or Mixed; for half-life: pH 7.4, read-out: HLMs t1/2
Experimental: Compounds were incubated in pooled human liver microsomes (HLMs) in the presence or absence of an NADPH-generating system. NADPH is required for the activity of cytochrome P450 (CYP) and other oxidative enzymes present in HLMs, but not for esterase activity. An additional incubation was carried out in the absence of HLM to assess compound stability. The disappearance of parent and the appearance of the corresponding acid metabolite were monitored over the time course of the incubations using LC-MS/MS.
A stock solution (20 mM) of each proprietary compound in DMSO was prepared and store at −20° C. until needed. A working stock solution (0.2 mM) was prepared for each proprietary compound by adding an aliquot of the stock solution (10 μL) to acetonitrile (990 μL).
An aliquot of the HLM solution was removed from the −80° C. freezer and placed on ice. Tris Buffer (50 mM, pH 7.4) containing MgCl2 (hexahydrate, 5 mM) was pre-incubated in a 37° C. water bath. A set of Eppendorf microfuge tubes (1.5 mL) was appropriately labeled. To each tube was added Tris buffer with or without the NADPH generating system. An aliquot of pooled HLMs was added to all the incubations except those that were the buffer control.
Tubes were preincubated for 5 min in a shaking incubator bath (37° C., 900 rpm) and the reaction was initiated by adding an aliquot of the proprietary working solution (5 μL). The additions were timed carefully in order to coordinate the sample collections below. A small aliquot (50 μL) was removed at […] and delivered to the respective tubes containing dextrorphan (100 μL of 0.5 μg/mL solution) in dissolved in methanol or acetonitrile. The samples were centrifuged at 14000 g for 15 minutes at 4° C. The supernatant was transferred to clean labeled HPLC injection vials and stored at −80° C. until analyzed. An aliquot of the supernatant […] was added to water (75 μL), mixed and injected onto the LC-MS/MS system for analysis.
“HLM t1/2” represents the observed half life of the compound under conditions that included NADPH, i.e., the CYP system was active. Comparison to the half life of the test article under (−)NADPH conditions, the enzyme predominant ly responsible for the metabolism of the test article. […] Where roughly equal metabolism is seen by each enzyme system, “mixed” is noted in the “Predominant enzyme” column.

pig liver esterase = test: Metabolism studies using pig liver esterase; type: in vitro ADME; settings: 37° C.
Experimental: The esterase-mediated metabolism of these compounds was studied using commercially available pig liver esterase in the presence and absence of human plasma proteins. The disappearance of parent was monitored over the time course of the incubations using a LC-UV detection system.
A stock solution and working stock solution was prepared for each proprietary compound as described for the human liver microsomal incubations. Working solutions of pig liver esterase in potassium phosphate buffer ([…], pH 7.4) and pig liver esterase in human plasma protein were prepared by dissolving pig liver esterase (2.51 mg) in the phosphate buffer or plasma protein solutions, respectively.
A set of three Eppendorf microfuge tubes (1.5 mL) was appropriately labeled. To each tube was added 1.5 mL of phosphate buffer, pig liver esterase in buffer, or pig liver esterase in human plasma protein solution. These solutions were pre-incubated (37° C., 900 rpm) and the reactions were initiated by adding an aliquot (37.5 μL) of the working solution of proprietary compound to each tube. An aliquot (100 μL) from each tube was removed at time 0, 5, 30, 60, and 120 min and added to a tube containing acetonitrile (200 μL) to stop the reaction.
The samples were centrifuged at 14000 g for 15 minutes at 4° C. The supernatant was transferred to clean labeled HPLC injection vials and stored at −80° C. until analyzed. An aliquot of the supernatant (25 μL) was injected onto the LC-UV system for analysis.
Half lives of a sample of test articles is noted in the following table. Half life was determined in the presence or absence of plasma.

[2] = pig liver esterase in human plasma protein solution, read-out: Pig Liver Esterase (t1/2 min.) (+) Plasma
[3] = pig liver esterase in phosphate buffer pH 7.4, no plasma, read-out: Pig Liver Esterase (t1/2 min.) (−) Plasma
[4] = pig liver esterase in human plasma protein solution

| EC50 (Gal-4 hPPARα) [nM] | EC50 (Gal-4 hPPARγ) [nM] | EC50 (Gal-4 hPPARβ/δ) [nM] | HLMs t1/2 (min) [1] | half-life at 4.9 µM (pig liver esterase; [2]) [min] | half-life at 4.9 µM (pig liver esterase; [3]) [min] | HLMs Predominant Enzyme [1] | half-life [1] [min] | Pig Liver Esterase (t1/2 min.) (+) Plasma (pig liver esterase; [4]) | SMILES |
| --- | --- | --- | --- | --- | --- | --- | --- | --- | --- |
| 1 to 50 | > 1000 | > 1000 | Stable | > 120 | > 120 | – | – | – | CCCn1c(C(C)OC(=O)c2ccc(SC(C)(C)C(=O)O)cc2)nn(Cc2ccc(C)cc2)c1=O (centres unmarked) [Compound 199, 2-methyl-2-(4-((1-(1-(4-methylbenzyl)-5-oxo-4-propyl-4,5-dihydro-1H-1,2,4-triazol-3-yl)ethoxy)carbonyl)phenylthio)propanoic acid] |
| – | – | – | – | > 120 | 3 | Esterase | 30 | – | CCCn1nc(Cc2ccc(C)cc2)cc1COC(=O)c1ccc(OC(C)(C)C(=O)O)cc1 [Compound 54, 4-(1-Carboxy-1-methyl-ethoxy)-benzoic acid 5-(4-methyl-benzyl)-2-propyl-2H-pyrazol-3-ylmethyl ester] |
| – | – | – | – | 44 | 15 | Esterase | 30 | – | CC(C)c1ccc(-n2nncc2COC(=O)c2ccc(SC(C)(C)C(=O)O)cc2)cc1 [Compound 59, 2-(4-(((1-(4-isopropylphenyl)-1H-1,2,3-triazol-5-yl)methoxy)carbonyl)phenylthio)-2-methylpropanoic acid] |
| – | – | – | Stable | – | 19 | – | – | Stable | CCCCCCn1c(COC(=O)Cc2ccc(OC(C)(C)C(=O)O)cc2)nn(Cc2ccc(C)cc2)c1=O [Compound 014, 2-(4-(2-((4-hexyl-1-(4-methylbenzyl)-5-oxo-4,5-dihydro-1H-1,2,4-triazol-3-yl)methoxy)-2-oxoethyl)phenoxy)-2-methylpropanoic acid] |
| 1 to 50 | > 1000 | > 1000 | Stable | > 120 | 68 | – | – | – | C[C@@H](OC(=O)c1ccc(SC(C)(C)C(=O)O)cc1)c1cn(Cc2ccc(C(F)(F)F)cc2)nn1 [Compound 95, (R)-2-methyl-2-(4-((1-(1-(4-(trifluoromethyl)benzyl)-1H-1,2,3-triazol-4-yl)ethoxy)carbonyl)phenylthio)propanoic acid] |
| – | – | – | – | 16 | < 1 | Esterase | 5 | – | CCCn1nc(Cc2ccc(C)cc2)cc1COC(=O)c1ccc(SC(C)(C)C(=O)O)cc1 [Compound 55, 4-(1-Carboxy-1-methyl-ethylsulfanyl)-benzoic acid 5-(4-methyl-benzyl)-2-propyl-2H-pyrazol-3-ylmethyl ester] |
| 1 to 50 | > 1000 | > 1000 | – | – | – | Mixed | 29 | – | C[C@@H](Cc1cn(Cc2ccc(C(C)(C)C)cc2)nn1)OC(=O)c1ccc(SC(C)(C)C(=O)O)cc1 [Compound 133, 4-(1-Carboxy-1-methyl-ethylsulfanyl)-benzoic acid (S)-2-[1-(4-tert-butyl-benzyl)-1H-1,2,3-triazol-4-yl]-1-methyl-ethyl ester] |
| – | – | – | Stable | – | 12 | – | – | Stable | CCCCCCCCn1c(COC(=O)Cc2ccc(OC(C)(C)C(=O)O)cc2)nn(Cc2ccc(C)cc2)c1=O [Compound 012, 2-methyl-2-(4-(2-((1-(4-methylbenzyl)-4-octyl-5-oxo-4,5-dihydro-1H-1,2,4-triazol-3-yl)methoxy)-2-oxoethyl)phenoxy)propanoic acid] |
| – | – | – | – | 17 | < 5 | Esterase | 10 | – | CCCn1c(COC(=O)c2ccc(OC(C)(C)C(=O)O)cc2)nn(Cc2ccc(C(=O)O[C@H](C)C(F)(F)C(F)(F)F)cc2)c1=O [Compound 174, (R)-2-methyl-2-(4-(((5-oxo-1-(4-((3,3,4,4,4-pentafluorobutan-2-yloxy)carbonyl)benzyl)-4-propyl-4,5-dihydro-1H-1,2,4-triazol-3-yl)methoxy)carbonyl)phenoxy)propanoic acid] |
| – | – | – | – | – | 77 | Mixed | 73 | Stable | C[C@@H](Cc1cn(Cc2ccc(C(F)(F)F)cc2)nn1)OC(=O)c1ccc(SC(C)(C)C(=O)O)cc1 [Compound 147, 4-(1-Carboxy-1-methyl-ethylsulfanyl)-benzoic acid (S)-1-methyl-2-[1-(4-trifluoromethyl-benzyl)-1H-1,2,3-triazol-4-yl]-ethyl ester] |
| – | – | – | Stable | – | 120 | Stable | – | Stable | Cc1ccc(Cn2nncc2COC(=O)c2ccc(OC(C)(C)C(=O)O)cc2)cc1 [Compound 63, 2-methyl-2-(4-(((1-(4-methylbenzyl)-1H-1,2,3-triazol-5-yl)methoxy)carbonyl)phenoxy)propanoic acid] |
